Experimental data from patent US12016831B2, “Polidocanol for use as immunomodulating agent” (priority 2018, dated 2024).

Experiments:
Format in all cases: in vivo, human
[1] = tested on: patients suffering from venous insufficiency from minor to severe; assay: Likert survey on the "inflammatory" state in treated subjects
Description: A commercially available polidocanol solution (Atossisclerol®) was diluted to 0.05% with a physiological saline solution. A 1.4% sodium bicarbonate solution was then added in order to obtain a final concentration of 0.06%. […] To the questions on the quality of life, 10 more specific questions were added in order to assess possible variations of the “inflammatory” state (n=100 patients) after the treatment. The survey was based on the indications of: “Evaluation by Likert-type scale 4-point (0-absent, 1-moderate, 2-severe and 3-very severe)” Elleuch et al. Adv Ther. 2016 September; 33(9):1536-49. […] The survey was tailored on the Likert scale and aimed at evaluating the reduction of a number of symptoms related to chronic phlogosis, such as arthrosic or arthritis manifestations (both generic and autoimmune) with particular reference to articular mobility and pain, in subjects not suffering from full-blown diseases and apparently normal. The answers were indexed according to a scale from 0 to 3 (or from 0 to 2). Table 1 summarizes the percent individuals reporting an improvement of 50% after 4 or 15 treatments according to the invention, by self-assessment according to the Liked scale described above, for each of the following sign or symptom: […]

[2] = tested on: patients with autoimmune diseases (psoriasis, rheumatoid arthritis, systemic scleroderma); assay: Cytokine and CRP levels in patients with autoimmune diseases after single administration; conditions: for Interleukin 1 beta level: T0 = 1; for Interleukin 13 level: T0 = 4; for Interleukin 6 level: T0 = 4.6; for Interleukin 7 level: T0 = 7; for CRP level: T0 = 32; for Interleukin 12 level / Interleukin 17 (25) level: T0 = 40; for Interleukin 9 level: T0 = 50; for TNF alpha level: T0 = 60
Description: A similar approach was used in a limited group of patients with autoimmune diseases. 10 patients (5 with psoriasis, 3 with rheumatoid arthritis, 2 with systemic scleroderma) were administered once the composition of the invention and a sample of blood was taken at T1 (8 days), T2 (30 days) and T3 (60 days). Cytokine and CRP (C-Reactive Protein, an index of inflammation) levels were measured by SCREEN CRP TEST and compared to those at time 0 (before the treatment).

subject with psoriasis = assay: Skin rashes in a subject with psoriasis after a single treatment; conditions: pictures at T=0 and after 30 days (FIG. 3)
Description: FIG. 3. Treatment of peripheral venous insufficiency in a subject with psoriasis. The subject was treated with a single dose of diluted polidocanol 0.1%. Pictures were taken at T=0 (panel A) and after 30 days (panel B).

[3] = % of patients, n=100, after at least 4-5 treatments
[4] = after several treatments (12-14)
[5] = compared to the previous year, n=100
[6] = up to 2 months after the treatment, n=100

Polidocanol [diluted polidocanol]
1. Articular mobility, % individuals reporting an improvement of 50% ([1]; 4 treatments, 100 individuals): 78% | 2. Reduction of pain, % individuals reporting improvement ([1]; 4 treatments, 100 individuals): 68% | 3. Reduction of symptoms, % individuals reporting improvement ([1]; 4 treatments, 100 individuals): 30% | 4. Skin trophism, % individuals reporting improvement ([1]; 4 treatments, 100 individuals): 87% | 5. Hair, % individuals reporting improvement ([1]; 4 treatments, 100 individuals): 90% | 6. Reduction of infections, % individuals reporting improvement ([1]; 4 treatments, 100 individuals): 70% | 7. Feeing of wellness, % individuals reporting improvement ([1]; 4 treatments, 100 individuals): 30% | 8. Feeling of lightness (lower limbs), % individuals reporting improvement ([1]; 4 treatments, 100 individuals): 70% | 9. Improvement of "cellulitis", % individuals reporting improvement ([1]; 4 treatments, 100 individuals): 54% | 10. Improvement of sleep-wake rythm, % individuals reporting improvement ([1]; 4 treatments, 100 individuals): 30% | Don't feel stopping treatment, % individuals ([1]; 4 treatments, 100 individuals): 26% | 1. Articular mobility, % individuals reporting an improvement of 50% ([1]; 15 treatments, 200 individuals): 90% | 2. Reduction of pain, % individuals reporting improvement ([1]; 15 treatments, 200 individuals): 82% | 3. Reduction of symptoms, % individuals reporting improvement ([1]; 15 treatments, 200 individuals): 60% | 4. Skin trophism, % individuals reporting improvement ([1]; 15 treatments, 200 individuals): 98% | 5. Hair, % individuals reporting improvement ([1]; 15 treatments, 200 individuals): 95% | 6. Reduction of infections, % individuals reporting improvement ([1]; 15 treatments, 200 individuals): 85% | 7. Feeing of wellness, % individuals reporting improvement ([1]; 15 treatments, 200 individuals): 70% | 8. Feeling of lightness (lower limbs), % individuals reporting improvement ([1]; 15 treatments, 200 individuals): 98% | 9. Improvement of "cellulitis", % individuals reporting improvement ([1]; 15 treatments, 200 individuals): 86% | 10. Improvement of sleep-wake rythm, % individuals reporting improvement ([1]; 15 treatments, 200 individuals): 56% | Don't feel stopping treatment, % individuals ([1]; 15 treatments, 200 individuals): 56% | Feeling of lightness in the lower limbs, 0: no variations ([1]; % of patients, n=100): 2% | Feeling of lightness in the lower limbs, 1: lighter limbs ([1]; % of patients, n=100): 70% | Feeling of lightness in the lower limbs, 2: lighter limbs and no oedema in the evenings ([1]; % of patients, n=100): 28% | Improvement of "cellulitis", 1: lighter limbs ([1]; % of patients, n=100): 54% | Improvement of "cellulitis", 2: lighter limbs and no oedema in the evenings ([1]; % of patients, n=100): 36% | Improvement of skin trophism, 0: no variations ([1]; % of patients, n=100): 5% | Improvement of the hair trophism, results positive ([1]; % of patients, n=100): 90% | Improvement of the sleep-wake rhythm, 0: no variations ([1]; % of patients, n=100): 63% | Improvement of the sleep-wake rhythm, 1: I don't know: maybe ([1]; % of patients, n=100): 30% | Improvement of the sleep-wake rhythm, 2: I'm sleeping better and wake-up more rested ([1]; % of patients, n=100): 7% | Improvement of the so-called "cellulitis", 0: no variations ([1]; % of patients, n=100): 10% | Reduction of pain related to chronic inflammatory events, 0: no variations ([1]; % of patients, n=100): 20% | Reduction of pain, 1: 20% reduction of pain-related symptoms ([1]; % of patients, n=100): 12% | Reduction of pain, 2: 50% reduction of pain-related symptoms ([1]; % of patients, n=100): 68% | Reduction of pain, 3: 70% reduction of pain-related symptoms ([1]; % of patients, n=100): 0% | Skin trophism, 1: slight improvement of the skin elasticity and of the trophism at the touch in the lower limbs ([1]; % of patients, n=100): 87% | Skin trophism, 2: slight improvement of the skin elasticity and of the trophism at the touch in the whole body ([1]; % of patients, n=100): 60% | Skin trophism, 3: improvement extended to the skin of the face ([1]; % of patients, n=100): 16% | Articular mobility, 0: no variations [1, 3]: 13% | Articular mobility, 1: 20% mobility improvement [1, 3]: 7% | Articular mobility, 2: 50% mobility improvement [1, 3]: 78% | Articular mobility, 3: 70% mobility improvement [1, 3]: 2% | cases with improved skin elasticity and smoother skin also in the face [1, 4]: 16% | cases with improved skin elasticity and smoother skin in general [1, 4]: 60% | Reduction of infective events, 0: no variations [1, 5]: 18% | Reduction of infective events, 1: maybe less infective events [1, 5]: 12% | Reduction of infective events, 2: definitely significant reduction [1, 5]: 70% | Reduction of symptoms, 1: 20% attenuation of manifestations related to skin and articular mobility ([1]; number of patients, n=12): 5 N. | Reduction of symptoms, 2: 50% attenuation of manifestations related to skin and articular mobility ([1]; number of patients, n=12): 4 N. | Reduction of symptoms, 3: 70% attenuation of manifestations related to skin and articular mobility ([1]; number of patients, n=12): 1 N. | Reduction of symptoms of chronic degenerative pathologies of immune and inflammatory genesis, 0: no variations ([1]; number of patients, n=12 (e.g. psoriasis, rheumatoid arthritis)): 2 N. | Feeling of well-being, 0: no variations [1, 6]: 12% | Feeling of well-being, 1: I feel a bit better but I don't know [1, 6]: 32% | Feeling of well-being, 2: I feel a bit better in the sense that I have a feeling of well-being [1, 6]: 30% | Feeling of well-being, 3: life without the treatment is not the same, I feel the need to undergo treatment [1, 6]: 26% | Interleukin 1 beta level ([2]; T1 (8 days) after single administration, average, 10 patients): 1.5 | Interleukin 13 level ([2]; T1 (8 days)): 5 | Interleukin 6 level ([2]; T1 (8 days)): 4.8 | Interleukin 7 level ([2]; T1 (8 days)): 9 | CRP level ([2]; T1 (8 days)): 30 | Interleukin 12 level ([2]; T1 (8 days)): 42 | Interleukin 17 (25) level ([2]; T1 (8 days)): 45 | Interleukin 9 level ([2]; T1 (8 days)): 80 | TNF alpha level ([2]; T1 (8 days)): 52 | Interleukin 1 beta level ([2]; T2 (30 days)): 1.7 | Interleukin 13 level ([2]; T2 (30 days)): 5 | Interleukin 6 level ([2]; T2 (30 days)): 3.7 | Interleukin 7 level ([2]; T2 (30 days)): 3 | CRP level ([2]; T2 (30 days)): 24 | Interleukin 12 level ([2]; T2 (30 days)): 36 | Interleukin 17 (25) level ([2]; T2 (30 days)): 32 | Interleukin 9 level ([2]; T2 (30 days)): 100 | TNF alpha level ([2]; T2 (30 days)): 42 | Interleukin 1 beta level ([2]; T3 (60 days)): 1.2 | Interleukin 13 level ([2]; T3 (60 days)): 4 | Interleukin 6 level ([2]; T3 (60 days)): 3.2 | Interleukin 7 level ([2]; T3 (60 days)): 3 | CRP level ([2]; T3 (60 days)): 16 | Interleukin 12 level ([2]; T3 (60 days)): 32 | Interleukin 17 (25) level ([2]; T3 (60 days)): 28 | Interleukin 9 level ([2]; T3 (60 days)): 120 | TNF alpha level ([2]; T3 (60 days)): 48 | skin rashes in a subject with psoriasis (subject with psoriasis): improve visibly the skin rashes
